Measurements reported in US20150118329A1, “METHOD FOR PROMOTING ADIPONECTIN PRODUCTION, PREVENTION AND TREATMENT OF HYPOADIPONECTINEMIA” (AMINO UP CHEMICAL CO., LTD., priority 2011, published 2015).

Tested on: adipocytes derived from a patient with diabetes, who was severely obese
Experiment: Screening of functional food product materials (samples 1 to 71) for APR in adipocytes derived from a severely obese diabetic patient
Assay type: cell-based, human
Conditions: 48 hour value divided by 96 hour value
Experimental: Fat tissues were harvested from remainder tissues removed at the time of surgery of a subject (a patient who was severely obese and had diabetes) who provided informed consent. These fat tissues were treated in the same manner as in Example 1 and used in screening for the adiponectin production-promoting action of functional food product materials (samples 1 to 71).
The samples 1 to 71 (Table 1 and Table 2) were suspended and dissolved in water, heated water (80° C.) or DMSO, and then stirred for 30 minutes, followed by filter filtration […]) for preparation thereof. The sample 25 was prepared by filter filtration (Φ0.45 μm) without carrying out dilution. Further, with regard to the samples 1 to 18, each of the samples was made with water to 1% suspension or aqueous solution, followed by filter filtration (Φ0.45 μm) for preparation thereof. Botanbouhu extract of the samples 58 and 59 was prepared in the same manner as in Example 2. Table 1 and Table 2 show material, solvent and concentration in the culture medium of samples 1 to 71 (samples 6 to 8 “Mixture of three types of peptides” (manufactured by Katano Bussan) is a mixture of peptides derived from dried kelp or konbu, sardine and pearl oyster).
Eight days after DM-2 treatment, the medium was changed to AM-1 medium with each of the samples 1 to 71 being added and 48 hour value and 96 hour value were measured in the same manner as described in Example 3. APR (Adiponectin Production Ratio; adiponectin secretion promoting index) was calculated by dividing the 48 hour value by the 96 hour value. The results are shown in Table 1 and Table 2 and FIG. 4A.

[1] = concentration in culture medium 0.067%
[2] = concentration in culture medium 10 nM

| Molecule | APR [1] | APR [2] |
| --- | --- | --- |
| CC1=C(/C=C/C(C)=C/C=C/C(C)=C/C=C/C=C(C)/C=C/C=C(C)/C=C/C2=C(C)C(=O)[C@@H](O)CC2(C)C)C(C)(C)C[C@H](O)C1=O [Sample 37, Astaxanthin] | 0.34 | – |
| CCc1ccc(CCOc2ccc(CC3SC(=O)NC3=O)cc2)nc1 (stereo not shown) [Sample 60, Pioglitazone] | – | 0.96 |
| CCCc1nc2c(C)cc(-c3nc4ccccc4n3C)cc2n1Cc1ccc(-c2ccccc2C(=O)O)cc1 [Sample 61, Telmisartan] | – | 0.54 |
| Cc1c(C(=O)NN2CCCCC2)nn(-c2ccc(Cl)cc2Cl)c1-c1ccc(Cl)cc1 [Sample 62, Rimonabant] | – | 0.69 |
| CC(=O)S[C@@H]1CC2=CC(=O)CC[C@]2(C)[C@H]2CC[C@@]3(C)[C@@H](CC[C@@]34CCC(=O)O4)[C@H]12 [Sample 63, Spironolactone] | – | 0.60 |
| COC(=O)[C@@H]1CC2=CC(=O)CC[C@]2(C)[C@@]23O[C@@H]2C[C@@]2(C)[C@@H](CC[C@@]24CCC(=O)O4)[C@H]13 [Sample 64, Eplerenone] | – | 0.62 |
| CC(C)(Oc1ccc(CCNC(=O)c2ccc(Cl)cc2)cc1)C(=O)O [Sample 65, Bezafibrate] | – | 0.75 |
| O=S(=O)(c1cccc2cnccc12)N1CCCNCC1 [Sample 66, Fasudil] | – | 0.58 |
| CCCc1nc(C(C)(C)O)c(C(=O)O)n1Cc1ccc(-c2ccccc2-c2nnn[nH]2)cc1 [Sample 69, Olmesartan] | – | 0.00 |
| CCC1=C(C)CN(C(=O)NCCc2ccc(S(=O)(=O)NC(=O)N[C@H]3CC[C@H](C)CC3)cc2)C1=O [Sample 70, Glimepyride] | – | 0.82 |
| CN(C)C(=N)N=C(N)N [Sample 71, Metformin] | – | 0.53 |
| Fucoxanthin [Sample 36] | 0.34 | – |
| Hyaluronic acid [Sample 31] | 0.36 | – |
